Laboratory results taken from US5665779A, “Pharmaceutical composition for inhibiting the infection with AIDS virus” (Zaidan, Hojin, Biseibutsu, Kagaku, Kenkyu, Kai, priority 1991, dated 1997).
Converted amounts (≈) assume the structure as drawn. Where two headings read alike, the source gives them in different places.

How the values were obtained:
[1] = test system: HIV (HTLV-IIIB strain) in MT-4 cells (human T-cell line); assay: Inhibition of infection of human T-cells (MT-4) with HIV, HIV antigen-positive cells by indirect immunofluorescence; format: cell-based; settings: for EC50: MT-4 cells, read-out: 50% Effective concentration (ED50) against HIV
Method: Effects of D-β-lysylmethanediamine inhibitory to infection of human T-cells with HIV were examined in a similar manner to the assay methods described in the "Proc. Natl. Acad, Sci. USA," 80, 6061-6065 (1983); "J. Antibiot.", 40, 1077-1078, (1987); "J. Antibiot.", 42, 344-346 (1989) and "J. Antibiot." 44, 1228-1236 (1991).
1×10^5 Cells/ml of MT-4 cells (human T-cell line) in phosphate buffered saline were seeded into Costar 48-well plates in an amount of 0.5 ml/well. Each well was added with 0.05 ml of a solution of the test compound, namely D-β-lysylmethanediamine (dissolved at different concentrations of 3, 10, 30 and 100 μg per ml in phosphate buffered saline). After incubation for 2 hours at 37° C. under 5% CO2, the MT-4 cells were infected with 0.05 ml of HIV (HTLV-IIIB strain) as added in an amount of multiplicity of infection (m.o.i) of 0.025 to 0.05 in each well. The plates were incubated for 4 days at 37° C. under 5% CO2 so that the T-cells were treated in the presence of the test compound at the different concentrations.
Portions of the incubated cultures were taken and the MT-4 cells were smeared onto slide glasses, dried and fixed with acetone. The presence of the HIV antigen-positive MT-4 cells was detected by the indirect immunofluoroescent assay [Y. Hinuma et al., "Proc. Natl. Acad. Sci. USA," 78, 6476-6480, (1981) and Y. Takeuchi et al., "Gann.", 78, 11-15 (1987)]. To this end, the cell smears, that is, the acetone-fixed cell smears were treated at 37° C. for 30 minutes with such serum of AIDS patient at a dilution of 1:10 in phosphate buffered saline, which was employed as the first antibody. After washing subsequently with phosphate buffered saline, the MT-4 cells were treated at 37° C. for 30 minutes with fluorescent isothiocyanate-conjugated rabbit anti-human IgG serum (Cappel Laboratories, Cocharanville, Pa., USA), which was employed as the second antibody. After the cell smears were then washed with phosphate buffered saline and covered with a cover glass, the MT-4 cells were examined under a fluorescence microscope. Percentages of the number of the viral antigen-positive MT-4 cells (namely, immunofluorescent cells where the HIV-associated antigens were present and expressed) in total cells were calculated.
For the control tests of estimating the number of the total cells under test, the above test procedures were repeated without addition of D-β-lysylmethanediamine.
In order to evaluate the activity of D-β-lysylmethanediamine to inhibit the infection of human T-cells, namely the MT-4 cells with HIV, calculation was made of the percentages (T/C, %) of the number (T) of the HIV antigen-positive cells as measured in the above-mentioned tests where the incubation of MT-4 cells was effected in the presence of the test compound, against the number (C) of the HIV antigen-positive cells as measured in the above-mentioned control tests where the incubation of MT-4 cells was effected without the addition of the test compound. The results of such calculation of the T/C values (%) are shown in Table 1 in term of rate (%) of presence or occurrence of the HIV antigen-positive cells.

[2] = Extractability with organic solvents; format: physicochemical; settings: from liquid portion of the culture
[3] = test system: MT-4 cells; assay: Cytotoxicity to MT-4 cells in the absence of HIV; format: cell-based, human; settings: even at a concentration of 100 μg/ml
Method: Furthermore, cytotoxicity of D-β-lysylmethanediamine to the MT-4 cells was estimated. This was done by incubating the MT-4 cells at varying concentrations of D-β-lysylmethanediamine added and in the absence of HIV but in the same manner of incubation and under the same conditions of incubation of MT-4 cells as those employed in the above-mentioned test procedures of assaying the activity of D-β-lysylmethanediamine to inhibit the infection of T-cells with HIV. That the cytotoxicity was not observed is represented by the symbol "-" in Table 1 below.

[4] = molecular target: T1, protease of HIV (HIV-1 M:B_HXB2R, UniProt P04585); assay: Activity inhibitory to protease of HIV; format: biochemical; settings: 100 μg/ml
T1 construct: preparation not described

[5] = test system: Gram-positive bacteria; settings: J. Antibiotics 39(3), 476 (1986); Kokai Sho-62-114947; cited from earlier work
[6] = Solubility in water; format: physicochemical; settings: in words
[7] = molecular target: T2, reverse transcriptase of HIV (HIV-1 M:B_HXB2R, UniProt P04585); assay: Activity inhibitory to reverse transcriptase of HIV; format: biochemical; settings: 100 μg/ml
T2 construct: preparation not described
Source text: Thus, it is apparent that D-β-lysylmethanediamine can inhibit strongly the infection of human T-cells with HIV by any mechanism yet unknown.

[8] = Acute toxicity in mice, intravenous; settings: mouse, in vivo, read-out: Dosage tolerated without death (acute toxicity)
Method: D-β-Lysylmethanediamine used according to this invention is characterised by its low toxicity to mammalian animals. For instance, in the tests of estimating acute toxicity of this compound where mice were intravenously administered with D-β-lysylmethanediamine, the mice having received administration of D-β-lysylmethanediamine could tolerate a dosage of 250 mg/kg of D-β-lysylmethanediamine without involving their death.

[9] = colorless powder; reported earlier; cited from earlier work
[10] = Hygroscopicity; format: physicochemical; settings: colorless powdery substance, Referential Example 1
[11] = Human immunodeficiency virus 1, IIIB, MT4, 96 h

SMILES	EC50 [1, 11]	Effect of inhibiting the infection of human T-cells with HIV compared with D-β-lysylmethanediamine (in words) ([1]; relative to D-β-lysylmethanediamine, from ED50)	Extraction with butanol, butyl acetate, chloroform and other organic solvents [2]	Cytotoxicity (in words) [3]	Activity inhibitory to protease of HIV [4]	Antibacterial activity against Gram-positive bacteria [5]	Solubility in water [6]	Activity inhibitory to reverse transcriptase of HIV [7]	MTD [8]	activity at 3 µg/mL ([1]; Human immunodeficiency virus 1, IIIB, MT4, 96 h, 3 μg/ml, T/C % vs control without test compound, 4 days, 37° C., read-out: Rate (%) of presence of HIV antigen-positive cells)	activity at 10 µg/mL ([1]; Human immunodeficiency virus 1, IIIB, MT4, 96 h, 10 μg/ml, T/C % vs control without test compound, 4 days, 37° C., read-out: Rate (%) of presence of HIV antigen-positive cells)	activity at 30 µg/mL ([1]; Human immunodeficiency virus 1, IIIB, MT4, 96 h, 30 μg/ml, T/C % vs control without test compound, 4 days, 37° C., read-out: Rate (%) of presence of HIV antigen-positive cells)	activity at 100 µg/mL ([1]; Human immunodeficiency virus 1, IIIB, MT4, 96 h, 100 μg/ml, T/C % vs control without test compound, 4 days, 37° C., read-out: Rate (%) of presence of HIV antigen-positive cells)	Reduction of the number of HIV antigen-positive cells (in words) ([1]; concentrations of no more than 100 μg/ml)	Hygroscopicity [9]	Hygroscopicity [10]
OC[C@@H]1CC[C@H](n2cnc3c(O)ncnc32)O1 [DDI, 2',3'-dideoxyinosine, reference compound]	0.46 mg/L (≈ 1.95 µM)	to the same extent														
NCCC[C@@H](N)CC(=O)NCN [D-β-lysylmethanediamine]	0.62 mg/L (≈ 3.56 µM)		substantially connot be extracted	no cytotoxicity	nor any activity inhibitory to protease of HIV	weak antibacterial activity	well soluble in water	neither any activity inhibitory to reverse transcriptase of HIV	≥ 250 mg/kg	30%	15%	10%	5%	reduce significantly		
NCCC[C@@H](N)CC(=O)NCN [D-β-lysylmethanediamine hemicarbonate]															hygroscopic	hygroscopic
